Experimental data published in patent US8471005B2 (Cephalon, Inc., priority 2008, dated 2013).
Read-outs that look alike come from different tables or passages of the source.

What was measured:
[1] = molecular target: T1, JAK2 (Homo sapiens, UniProt O60674); experiment: Recombinant Human JAK2 Kinase Assay (TRF); assay type: biochemical; settings: read-out: JAK2 Potency
T1 construct: host or cells: baculovirus expression system
Procedure, shortened: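 Baculovirus-expressed JAK2 (15 ng/ml) phosphorylated a biotinylated 15-mer peptide captured on Neutravidin, in 20 mM HEPES pH 7.2, 0.2 μM ATP, 1 mM MnCl2, 0.1% BSA, 2.5% DMSO final, 20 min at room temperature. Phosphoproduct detected by time-resolved fluorescence with Eu-N1-labelled PY100 antibody.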

[2] = molecular target: T2, ALK (Homo sapiens, UniProt Q9UM73); experiment: ALK Kinase Assay (ELISA/TRF, PLC-γ substrate); assay type: biochemical; settings: read-out: ALK Potency
T2 construct: host or cells: baculovirus expression system
T2 sequence (Q9UM73 19-1620): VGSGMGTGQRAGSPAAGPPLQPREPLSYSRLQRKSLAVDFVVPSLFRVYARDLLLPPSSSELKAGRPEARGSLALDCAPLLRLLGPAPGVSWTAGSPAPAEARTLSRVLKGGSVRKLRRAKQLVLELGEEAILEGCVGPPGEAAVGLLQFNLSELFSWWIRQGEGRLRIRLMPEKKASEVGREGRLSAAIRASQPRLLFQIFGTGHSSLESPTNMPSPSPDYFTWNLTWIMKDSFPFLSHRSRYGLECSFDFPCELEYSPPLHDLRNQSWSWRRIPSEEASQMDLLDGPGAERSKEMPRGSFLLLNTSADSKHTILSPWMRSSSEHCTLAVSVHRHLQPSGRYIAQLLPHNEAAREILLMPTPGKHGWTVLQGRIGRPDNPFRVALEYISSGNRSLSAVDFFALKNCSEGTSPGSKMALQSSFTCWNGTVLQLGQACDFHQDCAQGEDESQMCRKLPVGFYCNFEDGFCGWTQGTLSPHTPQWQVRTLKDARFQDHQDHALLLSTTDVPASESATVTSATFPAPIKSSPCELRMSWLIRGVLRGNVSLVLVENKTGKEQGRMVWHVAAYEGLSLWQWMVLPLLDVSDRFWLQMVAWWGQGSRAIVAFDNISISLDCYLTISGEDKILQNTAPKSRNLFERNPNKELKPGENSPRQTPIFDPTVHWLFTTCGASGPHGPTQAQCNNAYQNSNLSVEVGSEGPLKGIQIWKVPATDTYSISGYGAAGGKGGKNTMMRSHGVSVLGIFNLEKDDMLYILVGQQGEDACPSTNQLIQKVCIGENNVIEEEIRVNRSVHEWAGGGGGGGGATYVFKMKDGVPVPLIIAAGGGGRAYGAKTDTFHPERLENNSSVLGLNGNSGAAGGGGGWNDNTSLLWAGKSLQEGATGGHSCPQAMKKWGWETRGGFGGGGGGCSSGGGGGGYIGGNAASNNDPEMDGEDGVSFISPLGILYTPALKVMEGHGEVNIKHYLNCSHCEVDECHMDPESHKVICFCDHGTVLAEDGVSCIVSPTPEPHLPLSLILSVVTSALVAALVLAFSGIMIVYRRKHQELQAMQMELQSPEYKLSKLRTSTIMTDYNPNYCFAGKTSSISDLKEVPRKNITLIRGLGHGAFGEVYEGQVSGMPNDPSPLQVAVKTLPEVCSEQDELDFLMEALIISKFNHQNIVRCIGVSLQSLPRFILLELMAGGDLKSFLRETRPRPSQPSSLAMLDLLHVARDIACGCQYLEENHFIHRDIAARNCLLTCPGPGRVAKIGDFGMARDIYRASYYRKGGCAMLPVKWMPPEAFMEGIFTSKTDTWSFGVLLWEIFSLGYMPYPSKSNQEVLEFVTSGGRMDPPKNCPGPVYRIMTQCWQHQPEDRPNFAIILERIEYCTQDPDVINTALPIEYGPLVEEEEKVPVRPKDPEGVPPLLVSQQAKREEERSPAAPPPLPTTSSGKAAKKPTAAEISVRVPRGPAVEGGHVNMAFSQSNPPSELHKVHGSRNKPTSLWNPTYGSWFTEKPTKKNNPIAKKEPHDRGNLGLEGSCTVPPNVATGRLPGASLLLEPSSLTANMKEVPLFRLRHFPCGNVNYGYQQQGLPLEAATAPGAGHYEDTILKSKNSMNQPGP
Procedure, shortened: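 Read-out is time-resolved fluorescence from a Eu-N1-labeled PT66 antibody that binds phosphorylated PLC-γ, the substrate coated at 10 μg/mL in TBS. ALK at 30 ng/ml starts the reaction, which runs 15 minutes at 37° C.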

[3] = JAK2 kinase inhibition, 0.2 μM ATP
[4] = ALK kinase inhibition, 1 μM ATP

T1 sequence (O60674 whole entry): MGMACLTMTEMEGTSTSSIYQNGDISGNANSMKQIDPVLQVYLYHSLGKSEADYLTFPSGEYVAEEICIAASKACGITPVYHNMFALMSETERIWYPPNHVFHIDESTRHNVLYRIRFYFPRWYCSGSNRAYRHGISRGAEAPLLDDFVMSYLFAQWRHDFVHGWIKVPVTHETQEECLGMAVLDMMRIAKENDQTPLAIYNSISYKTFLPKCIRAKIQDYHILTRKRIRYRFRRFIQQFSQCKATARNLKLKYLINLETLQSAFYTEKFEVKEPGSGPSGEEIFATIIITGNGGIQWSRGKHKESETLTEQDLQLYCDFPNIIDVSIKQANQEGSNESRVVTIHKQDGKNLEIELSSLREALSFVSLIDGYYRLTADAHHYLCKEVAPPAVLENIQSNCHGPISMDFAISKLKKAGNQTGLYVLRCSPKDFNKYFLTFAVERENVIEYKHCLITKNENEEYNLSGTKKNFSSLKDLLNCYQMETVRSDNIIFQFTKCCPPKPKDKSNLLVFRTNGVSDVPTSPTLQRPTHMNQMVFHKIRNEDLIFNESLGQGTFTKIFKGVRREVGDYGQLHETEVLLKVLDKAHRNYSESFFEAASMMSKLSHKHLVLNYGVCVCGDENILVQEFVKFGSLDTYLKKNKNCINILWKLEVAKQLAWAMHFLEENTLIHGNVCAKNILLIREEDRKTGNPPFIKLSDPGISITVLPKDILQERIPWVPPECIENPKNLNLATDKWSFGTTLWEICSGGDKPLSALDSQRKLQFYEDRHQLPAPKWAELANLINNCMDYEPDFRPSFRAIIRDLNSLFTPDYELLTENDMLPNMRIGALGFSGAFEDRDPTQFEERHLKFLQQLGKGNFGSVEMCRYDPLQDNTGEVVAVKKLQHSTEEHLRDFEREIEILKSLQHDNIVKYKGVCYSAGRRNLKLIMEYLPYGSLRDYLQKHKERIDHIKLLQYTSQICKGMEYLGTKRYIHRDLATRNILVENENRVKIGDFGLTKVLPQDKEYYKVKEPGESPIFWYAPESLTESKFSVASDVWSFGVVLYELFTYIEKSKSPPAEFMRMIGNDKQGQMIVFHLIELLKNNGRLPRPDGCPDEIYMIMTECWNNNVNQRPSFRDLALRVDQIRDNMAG

Compound | IC50 [1, 3] [nM] | IC50 [2, 4] [nM] | IC50 ([1]; JAK2 Kinase Inhibition) [nM] | IC50 ([2]; ALK Kinase Inhibition) [nM]
COc1cc(C2CCN(CC(O)CF)CC2)ccc1Nc1ncc2ccc(-c3ccccc3N(C)S(C)(=O)=O)n2n1 (racemic) [Example 826, (±)-N-[2-(2-{4-[1-(3-Fluoro-2-hydroxy-propyl)-piperidin-4-yl]-2-methoxy-phenylamino}-pyrrolo[2,1-f][1,2,4]triazin-7-yl)-phenyl]-N-methyl-methanesulfonamide] | 100 to 1000 | < 100 |  | 
COc1ccccc1-c1ccc2cnc(Nc3ccc4c(c3)N(C(C)=O)CCCC4)nn12 [Example 639, 1-{8-[7-(2-Methoxyphenyl)-pyrrolo[2,1-f][1,2,4]triazin-2-ylamino]-2,3,4,5-tetrahydrobenzo[b]azepin-1-yl}ethanone] | < 100 | 1000 to 10000 |  | 
Cn1cc(-c2ccc3cnc(Nc4cccc(N5CCCC5=O)c4)nn23)cn1 [Example 967, 1-{3-[7-(1-Methyl-1H-pyrazol-4-yl)-\pyrrolo[2,1-f][1,2,4]triazin-2-ylamino]-phenyl}-pyrrolidin-2-one] | < 100 | 1000 to 10000 |  | 
COc1ccc(-c2ccc3cnc(Nc4ccc(-c5csnn5)cc4)nn23)cn1 [Example 909, [7-(6-Methoxy-pyridin-3-yl)-pyrrolo[2,1-f][1,2,4]triazin-2-yl]-(4-[1,2,3]thiadiazol-4-yl-phenyl)-amine] | < 100 | 1000 to 10000 |  | 
CC1(C)CCC(=O)Nc2cc(Nc3ncc4ccc(-c5ccc(S(C)(=O)=O)cc5)n4n3)ccc21 [Example 92, 8-[7-(4-Methanesulfonyl-phenyl)-pyrrolo[2,1-f][1,2,4]triazin-2-ylamino]-5,5-dimethyl-1,3,4,5-tetrahydro-benzo[b]azepin-2-one] |  |  | < 100 | 1000 to 10000
CCN1CCOC(c2ccc(Nc3ncc4ccc(-c5cccc(S(=O)(=O)NC(C)(C)C)c5)n4n3)cc2)C1 (stereo not drawn) [Example 653, N-tert-Butyl-3-{2-[4-(4-ethyl-morpholin-2-yl)-phenylamino]-pyrrolo[2,1-f][1,2,4]triazin-7-yl}benzenesulfonamide] | < 100 | 100 to 1000 |  | 
Cn1cnc2ccc(Nc3ncc4ccc(-c5cccc(S(=O)(=O)NC(C)(C)C)c5)n4n3)cc21 [Example 1300, N-tert-Butyl-3-[2-(3-methyl-3H-benzimidazol-5-ylamino)-pyrrolo[2,1-f][1,2,4]triazin-7-yl]-benzenesulfonamide] | < 100 | 100 to 1000 |  | 
CN1CCCC1COc1cc(Nc2ncc3ccc(-c4cccc(S(=O)(=O)NC(C)(C)C)c4)n3n2)ccc1Cl (stereo not drawn) [Example 1009, N-tert-Butyl-3-{2-[4-chloro-3-(1-methyl-pyrrolidin-2-ylmethoxy)-phenylamino]-pyrrolo[2,1-f][1,2,4]triazin-7-yl}-benzenesulfonamide] | < 100 | 100 to 1000 |  | 
COc1cc(C2CCN(C[C@H](O)C(F)(F)F)CC2)ccc1Nc1ncc2ccc(-c3ccccc3OC)n2n1 [Example 799, (S)-1,1,1-Trifluoro-3-(4-{3-methoxy-4-[7-(2-methoxy-phenyl)-pyrrolo[2,1-f][1,2,4]triazin-2-ylamino]-phenyl}-piperidin-1-yl)-propan-2-ol] | 100 to 1000 | < 100 |  | 
c1cncc(-c2ccc3cnc(Nc4cc[nH]n4)nn23)c1 [Example 124, (1H-Pyrazol-3-yl)-(7-pyridin-3-yl-pyrrolo[2,1-f][1,2,4]triazin-2-yl)-amine] |  |  | < 100 | 1000 to 10000
COc1cc(C2CCN(C)CC2)ccc1Nc1ncc2ccc(-c3cccc(S(=O)(=O)NC4CC4)c3)n2n1 [Example 696] | 100 to 1000 | < 100 |  | 
COc1cc(N2CCC(N3CCN(C)CC3)CC2)ccc1Nc1ncc2ccc(-c3cccc(S(=O)(=O)NC(C)(C)C)c3)n2n1 [Example 534, N-tert-Butyl-3-(2-{2-methoxy-4-[4-(4-methyl-piperazin-1-yl)-piperidin-1-yl]-phenylamino}-pyrrolo[2,1-f][1,2,4]triazin-7-yl)-benzene sulfonamide] | < 100 | < 100 |  | 
CS(=O)(=O)c1cccc(-c2ccc3cnc(Nc4ccc(F)c(Cl)c4)nn23)c1 [Example 597, (3-Chloro-4-fluoro-phenyl)-[7-(3-methanesulfonyl-phenyl)-pyrrolo[2,1-f][1,2,4]triazin-2-yl]-amine] | < 100 | > 10000 |  | 
c1ccc(-c2ccc3cnc(NCc4cccnc4)nn23)cc1 [Example 12, (7-Phenyl-pyrrolo[2,1-f][1,2,4]triazin-2-yl)-pyridin-3-ylmethyl-amine] |  |  | 1000 to 10000 | 1000 to 10000
COc1cc(N2CCC(N3CCCC3)CC2)ccc1Nc1ncc2ccc(-c3ccccc3OC)n2n1 [Example 481, [7-(2-Methoxy-phenyl)-pyrrolo[2,1-f][1,2,4]triazin-2-yl]-[2-methoxy-4-(4-pyrrolidin-1-yl-piperidin-1-yl)-phenyl]-amine] | 100 to 1000 | < 100 |  | 
COc1ccccc1-c1ccc2cnc(Nc3ccc4c(c3)COCCN4C)nn12 [Example 618, [7-(2-Methoxy-phenyl)-pyrrolo[2,1-f][1,2,4]triazin-2-yl]-(1-methyl-1,2,3,5-tetrahydro-benzo[e][1,4]oxazepin-7-yl)-amine] | < 100 | 100 to 1000 |  | 
1-[7-(2-Methoxy-phenyl)-pyrrolo[2,1-f][1,2,4]triazin-2-yl]-1H-imidazo[4,5-c]pyridine [Example 322] |  |  | 100 to 1000 | 1000 to 10000
Cn1cnc2ccc(Nc3ncc4ccc(-c5ccc(S(C)(=O)=O)cc5)n4n3)cc21 [Example 1301, [7-(4-Methanesulfonyl-phenyl)-pyrrolo[2,1-f][1,2,4]triazin-2-yl]-(3-methyl-3H-benzimidazol-5-yl)-amine] | < 100 | 100 to 1000 |  | 

Now from value to compound:

IC50 [1, 3] [nM] | IC50 [2, 4] [nM] | IC50 ([1]; JAK2 Kinase Inhibition) [nM] | IC50 ([2]; ALK Kinase Inhibition) [nM] | Compound
 |  | < 100 | < 100 | CN1CCN(c2ccc(Nc3ncc4ccc(-c5cccc(CO)c5)n4n3)cc2)CC1 [Example 1498, (3-{2-[4-(4-Methyl-piperazin-1-yl)-phenylamino]-pyrrolo[2,1-f][1,2,4]triazin-7-yl}-phenyl)-methanol]
 |  | < 100 | 1000 to 10000 | CS(=O)(=O)Nc1ccccc1-c1ccc2cnc(Nc3ccc(N4CCOCC4)cc3)nn12 [Example 428, N-{2-[2-(4-Morpholin-4-yl-phenylamino)-pyrrolo[2,1-f][1,2,4]triazin-7-yl]-phenyl}-methanesulfonamide]
 |  | < 100 | < 100 | COc1cc(N2CCC(N3CCN(C)CC3)CC2)ccc1Nc1ncc2ccc(-c3ccccc3OC)n2n1 [Example 251, {2-Methoxy-4-[4-(4-methyl-piperazin-1-yl)-piperidin-1-yl]-phenyl}-[7-(2-methoxy-phenyl)-pyrrolo[2,1-f][1,2,4]triazin-2-yl]-amine]
100 to 1000 | < 100 |  |  | COc1cc(CCN2CCN(C)CC2)ccc1Nc1ncc2ccc(-c3ccccc3OC)n2n1 [Example 488, {2-Methoxy-4-[2-(4-methyl-piperazin-1-yl)-ethyl]-phenyl}-[7-(2-methoxy-phenyl)-pyrrolo[2,1-f][1,2,4]triazin-2-yl]-amine]
< 100 | 100 to 1000 |  |  | CN1CCN(c2ccc(Nc3ncc4cc(-c5cccc(CCC#N)c5)cn4n3)cc2)CC1 [Example 1161, 3-(3-{2-[4-(4-Methyl-piperazin-1-yl)-phenylamino]-pyrrolo[2,1-f][1,2,4]triazin-6-yl}-phenyl)-propionitrile]
100 to 1000 | 1000 to 10000 |  |  | CN1CCN(c2ccc(Nc3ncc4cc(-c5ccccc5OCC#N)cn4n3)cc2)CC1 [Example 1155, (2-{2-[4-(4-Methyl-piperazin-1-yl)-phenylamino]-pyrrolo[2,1-f][1,2,4]triazin-6-yl}-phenoxy)-acetonitrile]
< 100 | 1000 to 10000 |  |  | CN1CCN(c2cccc(Nc3ncc4ccc(-c5cnn(C)c5)n4n3)c2)CC1 [Example 969, [3-(4-Methyl-piperazin-1-yl)-phenyl]-[7-(1-methyl-1H-pyrazol-4-yl)-pyrrolo[2,1-f][1,2,4]triazin-2-yl]-amine]
 |  | < 100 | 100 to 1000 | CS(=O)(=O)c1ccc(-c2ccc3cnc(Nc4ccc(N5CCN(CCO)CC5)cc4)nn23)cc1 [Example 88, 2-(4-{4-[7-(4-Methanesulfonyl-phenyl)-pyrrolo[2,1-f][1,2,4]triazin-2-ylamino]-phenyl}-piperazin-1-yl)-ethanol]
 |  | < 100 | > 10000 | CN1CCN(c2ccc(Nc3ncc4c(-c5ccccc5)ccn4n3)cc2)CC1 [Example 41, [4-(4-Methyl-piperazin-1-yl)-phenyl]-(5-phenyl-pyrrolo[2,1-f][1,2,4]triazin-2-yl)-amine]
< 100 | 1000 to 10000 |  |  | COc1ccncc1-c1ccc2cnc(Nc3ccc(N4CCOCC4)cc3)nn12 [Example 1211, [7-(4-Methoxy-pyridin-3-yl)-pyrrolo[2,1-f][1,2,4]triazin-2-yl]-(4-morpholin-4-yl-phenyl)-amine]
 |  | < 100 | 100 to 1000 | CN1CCN(c2ccc(Nc3ncc4ccc(-c5cccc(NS(=O)(=O)C6CC6)c5)n4n3)cc2)CC1 [Example 413, Cyclopropanesulfonic acid (3-{2-[4-(4-methyl-piperazin-1-yl)-phenylamino]-pyrrolo[2,1-f][1,2,4]triazin-7-yl}-phenyl)-amide]
 |  | 100 to 1000 | < 100 | COc1cc(N2CCN(C)CC2)ccc1Nc1ncc2ccc(-c3ccccc3N(C)S(C)(=O)=O)n2n1 [Example 1457, N-(2-{2-[2-Methoxy-4-(4-methyl-piperazin-1-yl)-phenylamino]-pyrrolo[2,1-f][1,2,4]triazin-7-yl}-phenyl)-N-methyl-methanesulfonamide]
